Data reported in ChEMBL document CHEMBL1123638 (J Med Chem, 1987).
Values after ≈ are worked out from the molar mass of the structure shown.

Key:
Shigella flexneri = experiment: In vitro antibacterial activity against Shigella flexneri (CN6007)
[1] = target: Bifunctional dihydrofolate reductase-thymidylate synthase (Plasmodium berghei str. ANKA, UniProt Q27713); experiment: Inhibitory activity against dihydrofolate reductase (DHFR) enzyme from Plasmodium berghei; settings: read-out: I50
Dihydrofolate reductase [2] = target: T1, Dihydrofolate reductase (Rattus norvegicus, UniProt Q920D2); experiment: Inhibitory activity against dihydrofolate reductase (DHFR) enzyme from rat liver; settings: read-out: I50
T1 sequence (Q920D2 whole entry): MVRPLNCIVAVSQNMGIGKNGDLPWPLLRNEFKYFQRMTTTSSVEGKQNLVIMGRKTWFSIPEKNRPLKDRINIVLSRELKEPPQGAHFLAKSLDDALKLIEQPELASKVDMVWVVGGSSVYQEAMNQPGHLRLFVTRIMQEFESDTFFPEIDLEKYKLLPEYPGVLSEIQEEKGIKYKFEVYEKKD

Staphylococcus aureus = experiment: In vitro antibacterial activity against Staphylococcus aureus (CN491)
Klebsiella pneumoniae = experiment: microbe, parasite or virus in culture
Description: In vitro antibacterial activity against Klebsiella pneumoniae (CN 3632)

Klebsiella aerogenes = experiment: In vitro antibacterial activity against Enterobacter aerogenes (2200/86)
Escherichia coli = experiment: In vitro antibacterial activity against Escherichia coli (CN314)
Salmonella = experiment: In vitro antibacterial activity against Salmonella typhi (CN512)
Proteus vulgaris = experiment: In vitro antibacterial activity against Proteus vulgaris (CN3296)
Dihydrofolate reductase [3] = target: T2, Dihydrofolate reductase (Gallus gallus, UniProt P00378); experiment: Inhibitory activity against dihydrofolate reductase (DHFR) enzyme from chicken liver; settings: read-out: I50
T2 sequence (P00378 whole entry): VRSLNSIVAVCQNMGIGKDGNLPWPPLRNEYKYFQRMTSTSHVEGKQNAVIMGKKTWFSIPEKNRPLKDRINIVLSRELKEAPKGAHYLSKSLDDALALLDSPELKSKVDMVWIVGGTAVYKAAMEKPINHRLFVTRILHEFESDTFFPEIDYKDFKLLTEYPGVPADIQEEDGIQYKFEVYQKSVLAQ

[4] = Acid dissociation constant was determined; assay type: ADME
[5] = Partition coefficient (logP); assay type: physicochemical; settings: octanol/water

Bifunctional dihydrofolate reductase-thymidylate synthase, sequence (Q27713 whole entry): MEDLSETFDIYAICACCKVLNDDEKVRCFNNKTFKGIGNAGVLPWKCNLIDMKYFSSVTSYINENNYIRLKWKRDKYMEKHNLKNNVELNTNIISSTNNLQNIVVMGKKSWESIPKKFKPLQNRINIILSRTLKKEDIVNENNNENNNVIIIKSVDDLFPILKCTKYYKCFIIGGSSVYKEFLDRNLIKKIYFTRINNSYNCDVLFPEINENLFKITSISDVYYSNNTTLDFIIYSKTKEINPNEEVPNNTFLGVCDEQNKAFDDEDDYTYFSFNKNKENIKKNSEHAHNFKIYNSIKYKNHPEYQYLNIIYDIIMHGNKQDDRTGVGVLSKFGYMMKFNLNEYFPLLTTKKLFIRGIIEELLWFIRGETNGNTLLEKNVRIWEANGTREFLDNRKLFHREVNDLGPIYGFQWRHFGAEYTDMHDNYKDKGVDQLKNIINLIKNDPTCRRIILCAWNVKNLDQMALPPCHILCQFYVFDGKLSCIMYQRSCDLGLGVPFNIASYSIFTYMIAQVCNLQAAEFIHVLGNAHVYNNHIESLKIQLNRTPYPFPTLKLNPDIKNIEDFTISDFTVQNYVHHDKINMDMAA

Row | Structure (SMILES) | MIC (Shigella flexneri) [µg/mL] | IC50 [1] [nM] | IC50 (Dihydrofolate reductase [2]) [µM] | MIC (Staphylococcus aureus) [µg/mL] | MIC (Klebsiella pneumoniae) [µg/mL] | MIC (Klebsiella aerogenes) [µg/mL] | MIC (Escherichia coli) [µg/mL] | MIC (Salmonella) [µg/mL] | MIC (Proteus vulgaris) [µg/mL] | IC50 (Dihydrofolate reductase [3]) [µM] | pKa [4] | logP [5]
1 | CCc1ccc(Cc2cnc(N)nc2N)cc1CC | 10 (≈ 39 µM) | 68 | 59 | 3 (≈ 11.7 µM) | 30 (≈ 117 µM) | 10 (≈ 39 µM) | 3 (≈ 11.7 µM) | 3 (≈ 11.7 µM) | 30 (≈ 117 µM) | 120 |  | 
2 | CCc1cc(Cc2cnc(N)nc2N)cc(CC)c1CC | 3 (≈ 10.5 µM) | 73 | 38 | 0.1 (≈ 0.352 µM) | 10 (≈ 35.2 µM) | 10 (≈ 35.2 µM) | 1 (≈ 3.52 µM) | 1 (≈ 3.52 µM) | 30 (≈ 105 µM) | 33 | 7.12 | 1.33
3 | COc1cc(Cc2cnc(N)nc2N)cc(OC)c1OC [TRIMETHOPRIM] | 0.1 (≈ 0.344 µM) |  |  | 0.3 (≈ 1.03 µM) | 1 (≈ 3.44 µM) | 0.3 (≈ 1.03 µM) | 0.1 (≈ 0.344 µM) | 0.03 (≈ 0.103 µM) | 1 (≈ 3.44 µM) |  |  | 
4 | COc1ccc(Cc2cnc(N)nc2N)cc1OC [DIAVERIDINE] | 0.5 (≈ 1.92 µM) | 210 | 78 | 5 (≈ 19.2 µM) | 5 (≈ 19.2 µM) | 0.5 (≈ 1.92 µM) | 0.5 (≈ 1.92 µM) | 0.1 (≈ 0.384 µM) | 5 (≈ 19.2 µM) | 300 |  | 
5 | COc1ccc(Cc2cnc(N)nc2N)cc1 |  |  | 170 |  |  |  |  |  |  |  |  | 
6 | CCc1ccc(Cc2cnc(N)nc2N)cc1C(C)C | 30 (≈ 111 µM) |  | 29 | 3 (≈ 11.1 µM) | 100 (≈ 370 µM) | 100 (≈ 370 µM) | 30 (≈ 111 µM) | 10 (≈ 37 µM) | 100 (≈ 370 µM) |  |  | 
7 | CCc1ccc(Cc2cnc(N)nc2N)cc1 | 10 (≈ 43.8 µM) |  | > 40 | 30 (≈ 131 µM) | 30 (≈ 131 µM) | 10 (≈ 43.8 µM) | 10 (≈ 43.8 µM) | 10 (≈ 43.8 µM) | 30 (≈ 131 µM) |  |  | 
8 | CC(C)c1ccc(Cc2cnc(N)nc2N)cc1 | 32 (≈ 132 µM) |  | 210 | 8 (≈ 33 µM) |  |  | 16 (≈ 66 µM) | 16 (≈ 66 µM) | 125 (≈ 516 µM) |  |  | 
9 | CC(C)(C)c1ccc(Cc2cnc(N)nc2N)cc1 | 30 (≈ 117 µM) |  | 230 | 10 (≈ 39 µM) | 100 (≈ 390 µM) | 30 (≈ 117 µM) | 10 (≈ 39 µM) | 10 (≈ 39 µM) | 100 (≈ 390 µM) |  |  | 
